Source: patent US12565501B2, “Muscarinic acetylcholine M1 receptor antagonists” (Contineum Therapeutics, Inc., priority 2019, dated 2026)

Target: T1, human M1 receptor (Homo sapiens, UniProt P11229)
T1 sequence (P11229 1-460): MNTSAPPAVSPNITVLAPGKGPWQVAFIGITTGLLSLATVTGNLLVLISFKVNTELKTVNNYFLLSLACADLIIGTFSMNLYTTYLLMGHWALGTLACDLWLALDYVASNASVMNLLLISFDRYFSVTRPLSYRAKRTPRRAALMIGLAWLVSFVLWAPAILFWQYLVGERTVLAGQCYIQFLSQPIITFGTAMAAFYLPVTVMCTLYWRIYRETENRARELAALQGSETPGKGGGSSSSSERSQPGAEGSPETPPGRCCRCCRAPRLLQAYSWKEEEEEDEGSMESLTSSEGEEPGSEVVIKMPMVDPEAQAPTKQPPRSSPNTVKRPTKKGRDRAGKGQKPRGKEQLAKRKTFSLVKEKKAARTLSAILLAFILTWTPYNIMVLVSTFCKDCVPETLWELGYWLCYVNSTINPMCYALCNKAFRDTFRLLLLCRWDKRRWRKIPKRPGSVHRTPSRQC
Assay: In vitro functional assay of muscarinic acetylcholine receptor activity (aequorin calcium flux, reversal of EC80 acetylcholine response)
Assay type: cell-based
Conditions: CHO-K1 cells stably expressing human M1 receptor with aequorin; acetylcholine at EC80; calcium flux (luminescence); read-out: M1 IC50
Procedure, shortened: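 CHO-K1 cells expressing human M1 and aequorin, loaded with 5 μM coelenterazine for 4 h, preincubated with compound 30 min at room temperature, then challenged with EC80 acetylcholine.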

How did the IC50 turn out when `COc1cccc(C2(NCC(=O)N3CC4CCC(C3)N4c3ccc(C#N)cn3)CC2)c1F` [Example 103, 6-(3-((1-(2-fluoro-3-methoxyphenyl)cyclopropyl)glycyl)-3,8-diazabicyclo[3.2.1]octan-8-yl)nicotinonitrile] was run?
Its IC50 is 10 to 100 nM.

Which IC50 does the source give for `N#Cc1ccc(N2C3CCC2CN(C(=O)CN2CC(c4ccc(F)cc4)C2)C3)nc1` [Example 105, 6-(3-(2-(3-(4-fluorophenyl)azetidin-1-yl)acetyl)-3,8-diazabicyclo[3.2.1]octan-8-yl)nicotinonitrile] here?
Its IC50 is over 1000 nM.

With `N#Cc1ccc(N2C3CCC2CN(C(=O)CNC2(c4cc(F)cc(F)c4)CC2)C3)nc1` [Example 107, 6-(3-((1-(3,5-difluorophenyl)cyclopropyl)glycyl)-3,8-diazabicyclo[3.2.1]octan-8-yl)nicotinonitrile] as the molecule, how does the IC50 read?
The IC50 was 10 to 100 nM.

Which IC50 does the source give for `COc1ccc(C2(NCC(=O)N3CC4CCC(C3)N4c3ccc(C#N)cn3)CC2)cc1F` [Example 108] here?
Its IC50 is 100 to 1000 nM.

With `COc1cc(C2(NCC(=O)N3CC4CCC(C3)N4c3ccc(C#N)cn3)CC2)ccc1F` [Example 109, 6-(3-((1-(4-fluoro-3-methoxyphenyl)cyclopropyl)glycyl)-3,8-diazabicyclo[3.2.1]octan-8-yl)nicotinonitrile] as the molecule, how does the IC50 read?
The IC50 was under 10 nM.

With `COc1cc(F)cc(C2(NCC(=O)N3CC4CCC(C3)N4c3ccc(C#N)cn3)CC2)c1` [Example 110, 6-(3-((1-(3-fluoro-5-methoxyphenyl)cyclopropyl)glycyl)-3,8-diazabicyclo[3.2.1]octan-8-yl)nicotinonitrile] as the molecule, how does the IC50 read?
The IC50 was under 10 nM.

With `COc1ccc(F)c(C2(NCC(=O)N3CC4CCC(C3)N4c3ccc(C#N)cn3)CC2)c1` [Example 111, 6-(3-((1-(2-fluoro-5-methoxyphenyl)cyclopropyl)glycyl)-3,8-diazabicyclo[3.2.1]octan-8-yl)nicotinonitrile] as the molecule, how does the IC50 read?
Its IC50 is under 10 nM.

With `COc1c(F)ccc(C2(NCC(=O)N3CC4CCC(C3)N4c3ccc(C#N)cn3)CC2)c1F` [Example 112, 6-(3-((1-(2,4-difluoro-3-methoxyphenyl)cyclopropyl)glycyl)-3,8-diazabicyclo[3.2.1]octan-8-yl)nicotinonitrile] as the molecule, how does the IC50 read?
The IC50 was under 10 nM.

Which IC50 does the source give for `COc1cc(C2(NCC(=O)N3CC4CCC(C3)N4c3ccc(C#N)cn3)CC2)c(F)cc1F` [Example 113, 6-(3-((1-(2,4-difluoro-5-methoxyphenyl)cyclopropyl)glycyl)-3,8-diazabicyclo[3.2.1]octan-8-yl)nicotinonitrile] here?
The IC50 was under 10 nM.

With `COc1cccc(C2(NCC(=O)N3CC4CCC(C3)N4c3ccc(C#N)cn3)CCC2)c1` [Example 114, 6-(3-((1-(3-methoxyphenyl)cyclobutyl)glycyl)-3,8-diazabicyclo[3.2.1]octan-8-yl)nicotinonitrile] as the molecule, how does the IC50 read?
Its IC50 is under 10 nM.

Which IC50 does the source give for `N#Cc1ccc(N2C3CCC2CN(C(=O)CNC2(c4ccc(F)cc4F)CCC2)C3)nc1` [Example 115, 6-(3-((1-(2,4-difluorophenyl)cyclobutyl)glycyl)-3,8-diazabicyclo[3.2.1]octan-8-yl)nicotinonitrile] here?
The IC50 was 10 to 100 nM.

`COc1ccc(F)c(C2(NCC(=O)N3CC4CCC(C3)N4c3ccc(C#N)cn3)CCC2)c1` [Example 116, 6-(3-((1-(2-fluoro-5-methoxyphenyl)cyclobutyl)glycyl)-3,8-diazabicyclo[3.2.1]octan-8-yl)nicotinonitrile] was tested. Which IC50 did it give?
The IC50 was 10 to 100 nM.

`COc1ccc(F)c(C2(NCC(=O)N3CC4CCC(C3)N4c3ccc(C#N)cn3)CCC2)c1F` [Example 117, 6-(3-((1-(2,6-difluoro-3-methoxyphenyl)cyclobutyl)glycyl)-3,8-diazabicyclo[3.2.1]octan-8-yl)nicotinonitrile] was tested. Which IC50 did it give?
The IC50 was 100 to 1000 nM.

With `N#Cc1ccc(N2C3CCC2CN(C(=O)CNC2(c4cccc(OC(F)(F)F)c4)CCC2)C3)nc1` [Example 119, 6-(3-((1-(3-(trifluoromethoxy)phenyl)cyclobutyl)glycyl)-3,8-diazabicyclo[3.2.1]octan-8-yl)nicotinonitrile] as the molecule, how does the IC50 read?
Its IC50 is 100 to 1000 nM.

For `N#Cc1ccc(N2C3CCC2CN(C(=O)CCC(F)(F)c2cccc4ncccc24)C3)nc1` [Example 122, 6-(3-(4,4-difluoro-4-(quinolin-5-yl)butanoyl)-3,8-diazabicyclo[3.2.1]octan-8-yl)nicotinonitrile], which IC50 is on record?
Its IC50 is under 10 nM.

Which IC50 does the source give for `N#Cc1ccc(N2C3CCC2CN(C(=O)/C=C/C(F)(F)c2ccc(F)cc2)C3)nc1` [Example 123, 6-(3-((E)-4,4-difluoro-4-(4-fluorophenyl)but-2-enoyl)-3,8-diazabicyclo[3.2.1]octan-8-yl)nicotinonitrile] here?
The IC50 was 10 to 100 nM.

How did the IC50 turn out when `N#Cc1ccc(N2C3CCC2CN(C(=O)CCC(F)(F)c2ccc(F)cc2)C3)nc1` [Example 124, 6-(3-(4,4-difluoro-4-(4-fluorophenyl)butanoyl)-3,8-diazabicyclo[3.2.1]octan-8-yl)nicotinonitrile] was run?
Its IC50 is 10 to 100 nM.

With `N#Cc1ccc(N2[C@@H]3CC[C@H]2CN(C(=O)/C=C/C(F)(F)c2cccc4nccnc24)C3)nc1` [Example 125, 6-(3-((E)-4,4-difluoro-4-(quinoxalin-5-yl)but-2-enoyl)-3,8-diazabicyclo[3.2.1]octan-8-yl)nicotinonitrile] as the molecule, how does the IC50 read?
The IC50 was under 10 nM.

`Cc1noc(C)c1C(F)(F)CCC(=O)N1CC2CCC(C1)N2c1ccc(C#N)cn1` [Example 126, 6-(3-(4-(3,5-dimethylisoxazol-4-yl)-4,4-difluorobutanoyl)-3,8-diazabicyclo[3.2.1]octan-8-yl)nicotinonitrile] was tested. Which IC50 did it give?
The IC50 was under 10 nM.

How did the IC50 turn out when `N#Cc1ccc(N2C3CCC2CN(C(=O)CCNC(CO)c2ccc(F)cc2)C3)nc1` [Example 130, 6-((3-(3-(((R)-1-(4-fluorophenyl)-2-hydroxyethyl)amino)propanoyl)-3,8-diazabicyclo[3.2.1]octan-8-yl)nicotinonitrile] was run?
The IC50 was over 1000 nM.

Which IC50 does the source give for `N#Cc1ccc(N2C3CCC2CN(C(=O)CCNC(CO)c2ccc(F)cc2)C3)nc1` [Example 131, 6-((3-(3-(((S)1-(4-fluorophenyl)-2-hydroxyethyl)amino)propanoyl)-3,8-diazabicyclo[3.2.1]octan-8-yl)nicotinonitrile] here?
The IC50 was 1000 to 10000 nM.

Which IC50 does the source give for `COc1cc(C(F)(F)/C=C/C(=O)N2CC3CCC(C2)N3c2ccc(C#N)cn2)ccn1` [Example 139, 6-(3-((E)-4,4-difluoro-4-(2-methoxypyridin-4-yl)but-2-enoyl)-3,8-diazabicyclo[3.2.1]octan-8-yl)nicotinonitrile] here?
The IC50 was under 10 nM.

With `COc1cnccc1C(F)(F)CCC(=O)N1CC2CCC(C1)N2c1ccc(C#N)cn1` [Example 140, 6-(3-(4,4-difluoro-4-(3-methoxypyridin-4-yl)butanoyl)-3,8-diazabicyclo[3.2.1]octan-8-yl)nicotinonitrile] as the molecule, how does the IC50 read?
Its IC50 is under 10 nM.

Which IC50 does the source give for `COc1ncccc1C(F)(F)/C=C/C(=O)N1C[C@H]2CC[C@@H](C1)N2c1ccc(C#N)cn1` [Example 141, 6-(3-((E)-4,4-difluoro-4-(2-methoxypyridin-3-yl)but-2-enoyl)-3,8-diazabicyclo[3.2.1]octan-8-yl)nicotinonitrile] here?
The IC50 was under 10 nM.

With `COc1cncc(C(F)(F)/C=C/C(=O)N2CC3CCC(C2)N3c2ccc(C#N)cn2)c1` [Example 142, 6-(3-((E)-4,4-difluoro-4-(5-methoxypyridin-3-yl)but-2-enoyl)-3,8-diazabicyclo[3.2.1]octan-8-yl)nicotinonitrile] as the molecule, how does the IC50 read?
The IC50 was under 10 nM.

With `COc1ccncc1C(F)(F)/C=C/C(=O)N1C[C@H]2CC[C@@H](C1)N2c1ccc(C#N)cn1` [Example 143, 6-(3-((E)-4,4-difluoro-4-(4-methoxypyridin-3-yl)but-2-enoyl)-3,8-diazabicyclo[3.2.1]octan-8-yl)nicotinonitrile] as the molecule, how does the IC50 read?
Its IC50 is under 10 nM.

With `COc1cccnc1C(F)(F)/C=C/C(=O)N1C[C@H]2CC[C@@H](C1)N2c1ccc(C#N)cn1` [Example 144, 6-(3-((E)-4,4-difluoro-4-(3-methoxypyridin-2-yl)but-2-enoyl)-3,8-diazabicyclo[3.2.1]octan-8-yl)nicotinonitrile] as the molecule, how does the IC50 read?
Its IC50 is under 10 nM.

With `COc1cccc(C(F)(F)CCC(=O)N2CC3CCC(C2)N3c2ccc(C#N)cn2)n1` [Example 145, 6-(3-(4,4-difluoro-4-(6-methoxypyridin-2-yl)butanoyl)-3,8-diazabicyclo[3.2.1]octan-8-yl)nicotinonitrile] as the molecule, how does the IC50 read?
The IC50 was under 10 nM.

`N#Cc1ccc(N2[C@@H]3CC[C@H]2CN(C(=O)/C=C/C(F)(F)c2cccn4ncnc24)C3)nc1` [Example 146, 6-(3-((E)-4-([1,2,4]triazolo[1,5-a]pyridin-8-yl)-4,4-difluorobut-2-enoyl)-3,8-diazabicyclo[3.2.1]octan-8-yl)nicotinonitrile] was tested. Which IC50 did it give?
The IC50 was under 10 nM.

How did the IC50 turn out when `N#Cc1ccc(N2C3CCC2CN(C(=O)/C=C/C(F)(F)c2cccc4ncnn24)C3)nc1` [Example 148, 6-(-3-((E)-4-([1,2,4]triazolo[1,5-a]pyridin-5-yl)-4,4-difluorobut-2-enoyl)-3,8-diazabicyclo[3.2.1]octan-8-yl)nicotinonitrile] was run?
The IC50 was under 10 nM.

`[2H]C([2H])([2H])Oc1cc(C(F)(F)/C=C/C(=O)N2CC3CCC(C2)N3c2ccc(C#N)cn2)ccn1` [Example 149, 6-(3-((E)-4,4-difluoro-4-(2-(methoxy-d3)pyridin-4-yl)but-2-enoyl)-3,8-diazabicyclo[3.2.1]octan-8-yl)nicotinonitrile] was tested. Which IC50 did it give?
The IC50 was under 10 nM.

`COc1cc(C(F)(F)CCCC(=O)N2CC3CCC(C2)N3c2ccc(C#N)cn2)ccn1` [Example 150, 6-(3-(5,5-difluoro-5-(2-methoxypyridin-4-yl)pentanoyl)-3,8-diazabicyclo[3.2.1]octan-8-yl)nicotinonitrile] was tested. Which IC50 did it give?
Its IC50 is 100 to 1000 nM.
